Patent US20240360148A1 (SUVALENT THERAPEUTICS, INC., priority 2021, published 2024)

biological target: SAE1 (Homo sapiens (Human), UniProt Q9UBE0+Q9UBT2); experiment: SAE High Throughput Biochemical Assay (HTRF), 15 min preincubation; conditions: read-out: 15 min preincubation HTRF IC50 (μM) Ave, SAE1 12.5 nM, ATP 100 μM
Description: Assay buffer was prepared [50 mM HEPES, pH 7.5, 0.1% BSA and 10 mM MgCl2] as was the Stop Buffer [100 mM HEPES, pH 7.5, 0.05% Tween20, and 410 mM KF]. The 2×Reaction Buffer [80 nM SUMO-GST, 80 nM UBC9-His, 200 μM ATP and diluted in Assay Buffer] and Antibody Reaction Mix [13.34 nM anti-GSTXL665, 1.66 nM anti-His EuK and Diluted in Stop Buffer] were also prepared. Compounds were dissolved at 200×in DMSO in a 384-well plate. Serial dilutions were performed in DMSO for each compound, and then each concentration was diluted another 50-fold in Assay Buffer, to 4× the final concentration. 2.5 μL of each concentration was transferred into its own well in a 384-well plate. SAE1 was then diluted to 4× in Assay Buffer, and 2.5 μL of 4×SAE1 was mixed into each compound-containing well. After incubating for 15 minutes at RT, 5 μL of 2×Reaction Buffer was mixed into every well. Then after another 45 minutes at RT, 10 μL of Antibody Reaction Mix was added and mixed into every well. This plate was then read on an HTRF-compatible plate reader after 2 hours at RT, and again after sitting at RT overnight. [Final Component Concentrations: SAE1: 12.5 nM; SUMO-GST: 40 nM; UBC9-His: 40 nM; Anti-GST-XL665: 6.67 nM; Anti-His-EuK: 0.83 nM; and ATP: 100 μM] Alternatively, the compounds are tested at a single concentration of 25 micromolar and the percent of control is measured.

Chain of SAE1 (Q9UBE0 whole entry): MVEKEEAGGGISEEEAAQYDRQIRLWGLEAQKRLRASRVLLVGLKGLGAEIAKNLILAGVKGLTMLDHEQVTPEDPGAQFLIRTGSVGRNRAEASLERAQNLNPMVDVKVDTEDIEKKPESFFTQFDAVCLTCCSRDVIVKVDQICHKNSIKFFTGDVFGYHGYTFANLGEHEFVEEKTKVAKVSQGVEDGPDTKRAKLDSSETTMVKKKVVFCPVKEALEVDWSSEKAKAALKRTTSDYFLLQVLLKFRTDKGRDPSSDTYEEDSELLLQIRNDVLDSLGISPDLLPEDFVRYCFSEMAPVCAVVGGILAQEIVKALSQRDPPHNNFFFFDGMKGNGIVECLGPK
Chain of SAE1 (Q9UBT2 whole entry): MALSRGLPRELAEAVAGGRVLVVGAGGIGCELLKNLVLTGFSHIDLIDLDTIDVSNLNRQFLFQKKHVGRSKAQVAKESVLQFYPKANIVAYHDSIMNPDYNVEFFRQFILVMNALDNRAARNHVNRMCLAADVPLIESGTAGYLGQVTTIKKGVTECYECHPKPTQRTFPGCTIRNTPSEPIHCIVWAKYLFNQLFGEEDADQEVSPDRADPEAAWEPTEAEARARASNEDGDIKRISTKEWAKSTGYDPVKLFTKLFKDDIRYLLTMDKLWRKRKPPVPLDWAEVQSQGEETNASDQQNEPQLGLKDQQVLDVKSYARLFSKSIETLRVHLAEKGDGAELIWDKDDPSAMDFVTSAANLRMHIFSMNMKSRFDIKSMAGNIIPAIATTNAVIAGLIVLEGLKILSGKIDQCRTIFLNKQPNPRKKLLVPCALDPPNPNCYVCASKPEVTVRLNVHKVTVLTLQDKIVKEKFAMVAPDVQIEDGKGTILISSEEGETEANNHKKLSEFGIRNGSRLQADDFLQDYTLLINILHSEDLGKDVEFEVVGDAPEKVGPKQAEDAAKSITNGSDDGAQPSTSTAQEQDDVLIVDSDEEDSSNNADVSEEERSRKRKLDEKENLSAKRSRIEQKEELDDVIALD

Row | Compound | IC50 [µM]
1 | CC(C(=O)N(C)C)n1cc(-c2ccccc2[C@@H]2CN(C(=O)/C=C/CN(C)C)Cc3sc(C#N)cc32)c(C(F)(F)F)n1 (stereo partly drawn) [Example 163, 2-(4-(2-((S)-2-Cyano-6-((E)-4-(dimethylamino)but-2-enoyl)-4,5,6,7-tetrahydrothieno[2,3-c]pyridin-4-yl)phenyl)-3-(trifluoromethyl)-1 H-pyrazol-1-yl)-N, N-dimethylpropanamide] | 8.68
2 | CC(C(=O)N(C)C)n1cc(-c2ccccc2[C@@H]2CN(C(=O)/C=C/CN(C)C)Cc3sc(C#N)cc32)c(C(F)(F)F)n1 (stereo partly drawn) [Example 164, 2-(4-(2-((S)-2-Cyano-6-((E)-4-(dimethylamino)but-2-enoyl)-4,5,6,7-tetrahydrothieno[2,3-c]pyridin-4-yl)phenyl)-3-(trifluoromethyl)-1 H-pyrazol-1-yl)-N, N-dimethylpropanamide] | 10.9
3 | CN(C)C/C=C/C(=O)N1Cc2sc(C#N)cc2[C@H](c2ccccc2-c2cn(Cc3ncno3)nc2C(F)(F)F)C1 [Example 166, (S,E)-4-(2-(1-((1,2,4-Oxadiazol-5-yl)methyl)-3-(trifluoromethyl)-1H pyrazol-4-yl)phenyl)-6-(4-(dimethylamino)but-2-enoyl)-4,5,6,7-tetrahydrothieno[2,3-c]pyridine-2-carbonitrile] | 19.9
4 | CN(C)C/C=C/C(=O)N1Cc2sc(C#N)cc2[C@H](c2ccccc2-c2cn(S(C)(=O)=O)nc2C(F)(F)F)C1 [Example 168, (S, E)-6-(4-(Dimethylamino)but-2-enoyl)-4-(2-(1-(methylsulfonyl)-3-(trifluoromethyl)-1 H pyrazol-4-yl)phenyl)-4,5,6,7-tetrahydrothieno[2,3-c]pyridine-2-carbonitrile] | 18.8
5 | CCOC(=O)Cn1cc(-c2ccccc2[C@@H]2CN(C(=O)/C=C/CN(C)C)Cc3sc(C#N)cc32)c(C(F)(F)F)n1 [Example 169, Ethyl (S,E)-2-(4-(2-(2-cyano-6-(4-(dimethylamino)but-2-enoyl)-4,5,6,7-tetrahydrothieno[2,3-c]pyridin-4-yl)phenyl)-3-(trifluoromethyl)-1 H-pyrazol-1-yl)acetate] | 14.5
6 | CCOC(=O)CCn1cc(-c2ccccc2[C@@H]2CN(C(=O)/C=C/CN(C)C)Cc3sc(C#N)cc32)c(C(F)(F)F)n1 [Example 170, Ethyl (S,E)-3-(4-(2-(2-cyano-6-(4-(dimethylamino)but-2-enoyl)-4,5,6,7-tetrahydrothieno[2,3-c]pyridin-4-yl)phenyl)-3-(trifluoromethyl)-1H pyrazol-1-yl)propanoate] | 10.2
7 | CCOC(=O)CCCn1cc(-c2ccccc2[C@@H]2CN(C(=O)/C=C/CN(C)C)Cc3sc(C#N)cc32)c(C(F)(F)F)n1 [Example 171] | 12
8 | CN(C)C/C=C/C(=O)N1Cc2sc(C#N)cc2[C@H](c2ccccc2-c2cn(CC(=O)O)nc2C(F)(F)F)C1 [Example 172, (S, E)-2-(4-(2-(2-Cyano-6-(4-(dimethylamino)but-2-enoyl)-4,5,6,7-tetrahydrothieno[2,3-c]pyridin-4-yl)phenyl)-3-(trifluoromethyl)-1H pyrazol-1-yl)acetic acid] | 21.1
9 | CN(C)C/C=C/C(=O)N1Cc2sc(C#N)cc2[C@H](c2ccccc2-c2cn(CCC(=O)O)nc2C(F)(F)F)C1 [Example 173, (S, E)-3-(4-(2-(2-Cyano-6-(4-(dimethylamino)but-2-enoyl)-4,5,6,7-tetrahydrothieno[2,3-c]pyridin-4-yl)phenyl)-3-(trifluoromethyl)-1H-pyrazol-1-yl)propanoic acid] | 17.3
10 | CN(C)C/C=C/C(=O)N1Cc2sc(C#N)cc2[C@H](c2ccccc2-c2cn(CCCC(=O)O)nc2C(F)(F)F)C1 [Example 174, (S, E)-4-(4-(2-(2-Cyano-6-(4-(dimethylamino)but-2-enoyl)-4,5,6,7-tetrahydrothieno[2,3-c]pyridin-4-yl)phenyl)-3-(trifluoromethyl)-1H pyrazol-1-yl)butanoic acid] | 12.5
11 | CN(C)C/C=C/C(=O)N1Cc2sc(C#N)cc2[C@H](c2ccccc2-c2cn(CCc3ccccn3)nc2C(F)(F)F)C1 [Example 176, (S, E)-6-(4-(Dimethylamino)but-2-enoyl)-4-(2-(1-(2-(pyridin-2-yl)ethyl)-3-(trifluoromethyl)-1H-pyrazol-4-yl)phenyl)-4,5,6,7-tetrahydrothieno[2,3-c]pyridine-2-carbonitrile] | 19.9
12 | CN(C)C/C=C/C(=O)N1Cc2sc(C#N)cc2[C@H](c2ccccc2-c2cn(CCc3ccncc3)nc2C(F)(F)F)C1 [Example 177, (S,E)-6-(4-(Dimethylamino)but-2-enoyl)-4-(2-(1-(2-(pyridin-4-yl)ethyl)-3-(trifluoromethyl)-1H pyrazol-4-yl)phenyl)-4,5,6,7-tetrahydrothieno[2,3-c]pyridine-2-carbonitrile] | 6.3
13 | CCn1cc(-c2c(C3CN(C(=O)/C=C/CN(C)C)Cc4sc(C#N)cc43)ccc(F)c2F)c(C(F)(F)F)n1 (stereo not shown) [Example 184, (E)-6-(4-(Dimethylamino)but-2-enoyl)-4-(2-(1-ethyl-3-(trifluoromethyl)-1 H-pyrazol-4-yl)-3,4-difluorophenyl)-4,5,6,7-tetrahydrothieno[2,3-c]pyridine-2-carbonitrile] | 8.37
14 | CCn1cc(-c2c(C3CN(C(=O)/C=C/CN(C)C)Cc4sc(C#N)cc43)ccc(F)c2Cl)c(C(F)(F)F)n1 (stereo not shown) [Example 187, (E)-4-(3-Chloro-2-(1-ethyl-3-(trifluoromethyl)-1 H-pyrazol-4-yl)-4-fluorophenyl)-6-(4-(dimethylamino)but-2-enoyl)-4,5,6,7-tetrahydrothieno[2,3-c]pyridine-2-carbonitrile] | 8.1
15 | CCn1cc(-c2cc(C(F)F)ccc2C2CN(C(=O)/C=C/CN(C)C)Cc3sc(C#N)cc32)c(C(F)(F)F)n1 (stereo not shown) [Example 188, (E)-4-(4-(Difluoromethyl)-2-(1-ethyl-3-(trifluoromethyl)-1 H-pyrazol-4-yl)phenyl)-6-(4-(dimethylamino)but-2-enoyl)-4,5,6,7-tetrahydrothieno[2,3-c]pyridine-2-carbonitrile] | 18
16 | CCn1cc(-c2nc(N)ccc2C2CN(C(=O)/C=C/CN(C)C)Cc3sc(C#N)cc32)c(C(F)(F)F)n1 (stereo not shown) [Example 192, (E)-4-(6-Amino-2-(1-ethyl-3-(trifluoromethyl)-1 H-pyrazol-4-yl)pyridin-3-yl)-6-(4-(dimethylamino)but-2-enoyl)-4,5,6,7-tetrahydrothieno[2,3-c]pyridine-2-carbonitrile] | > 25
17 | CCn1cc(-c2cc(CO)ccc2C2CN(C(=O)/C=C/CN(C)C)Cc3sc(C#N)cc32)c(C(F)(F)F)n1 (stereo not shown) [Example 194, (E)-6-(4-(Dimethylamino)but-2-enoyl)-4-(2-(1-ethyl-3-(trifluoromethyl)-1 H-pyrazol-4-yl)-4-(hydroxymethyl)phenyl)-4,5,6,7-tetrahydrothieno[2,3-c]pyridine-2-carbonitrile] | > 25
18 | CCn1cc(-c2cc(NC(=O)NC)ccc2C2CN(C(=O)/C=C/CN(C)C)Cc3sc(C#N)cc32)c(C(F)(F)F)n1 (stereo not shown) [Example 195, (E)-1-(4-(2-Cyano-6-(4-(dimethylamino)but-2-enoyl)-4,5,6,7-tetrahydrothieno[2,3-c]pyridin-4-yl)-3-(1-ethyl-3-(trifluoromethyl)-1 H-pyrazol-4-yl)phenyl)-3-methylurea] | 11.3
19 | CCn1cc(-c2ccc(N)cc2C2CN(C(=O)/C=C/CN(C)C)Cc3sc(C#N)cc32)c(C(F)(F)F)n1 (stereo not shown) [Example 196, (E)-4-(5-Amino-2-(1-ethyl-3-(trifluoromethyl)-1 H-pyrazol-4-yl)phenyl)-6-(4-(dimethylamino)but-2-enoyl)-4,5,6,7-tetrahydrothieno[2,3-c]pyridine-2-carbonitrile] | > 25
20 | CCn1cc(-c2cc(NC(C)=O)ccc2C2CN(C(=O)/C=C/CN(C)C)Cc3sc(C#N)cc32)c(C(F)(F)F)n1 (stereo not shown) [Example 197, (E)-N-(4-(2-Cyano-6-(4-(dimethylamino)but-2-enoyl)-4,5,6,7-tetrahydrothieno[2,3-c]pyridin-4-yl)-3-(1-ethyl-3-(trifluoromethyl)-1 H-pyrazol-4-yl)phenyl)acetamide] | 15.2
21 | CCn1cc(-c2c(C3CN(C(=O)/C=C/CN(C)C)Cc4sc(C#N)cc43)cnn2C)c(C(F)(F)F)n1 (stereo not shown) [Example 198, (E)-6-(4-(Dimethylamino)but-2-enoyl)-4-(1′-ethyl-2-methyl-3′-(trifluoromethyl)-1′H,2H-[3,4′-bipyrazol]-4-yl)-4,5,6,7-tetrahydrothieno[2,3-c]pyridine-2-carbonitrile] | > 25
22 | CCn1cc(-c2c(C3CN(C(=O)/C=C/CN(C)C)Cc4sc(C#N)cc43)ccnc2F)c(C(F)(F)F)n1 (stereo not shown) [Example 202, (E)-6-(4-(Dimethylamino)but-2-enoyl)-4-(3-(1-ethyl-3-(trifluoromethyl)-1 H-pyrazol-4-yl)-2-fluoropyridin-4-yl)-4,5,6,7-tetrahydrothieno[2,3-c]pyridine-2-carbonitrile] | 24.9
